The record followed here is patent US11589590B2, “Antimicrobial coatings and methods of making and using thereof” (GEORGIA TECH RESEARCH CORPORATION, priority 2016, dated 2023).

Series [1] in a line: Fragmentation of pyridine adducts in deuterated aqueous buffer followed by 1H NMR. The format is physicochemical. An excerpt:
The fragmentation of cationic adducts was followed by ^1H NMR in deuterated buffer, with the relative concentration of each species established by integration of unique resonances. Each adduct in Table 3 and Table 4 was thus examined in three independent runs. […]

For series [2], the system named is CHO-K1 cells. The format is cell-based. Conditions: for concentrations at which nontoxic: Chinese hamster. As for the experimental part:
Approximately 1×10^4 CHO-K1 cells/well were plated in a 96-well plate in 100 μL of complete growth media, and adhered overnight at 37° C. The media was then replaced by 100 μL of polymer or monomer in serum-free media at the indicated concentration. Full media was replenished after 4 or 24 h. Viability was measured by MTT assay, with non-treated cells assigned as 100% viability. The results are plotted in FIGS. 11A-11D and 12A-12H.

Where [3] appears, read: pseudo first order fragmentation at 50° C., deuterated buffer.
[4] abbreviates: pseudo first order fragmentation at 37° C.

Consider `COC(=O)c1ccc[n+](C2CCC3SC2CCC3[n+]2cccc(C(=O)OC)c2)c1.O=[N+]([O-])[O-].O=[N+]([O-])[O-]` (centres unmarked) [Compound 5b, 2,6-di-3-methoxycarbonylpyridinium-9-thiabicyclo[3.3.1]nonane dinitrate], for which, in series [1] (50° C., relative to 5e = 1.00), the krel is on record as 1.86. In addition, the kfrag entry in series [1] (setting [3]) is on record as “(3.03 ± 0.38) × 10^−2 h^−1”.

With `COC(=O)c1cc[n+](C2CCC3SC2CCC3[n+]2ccc(C(=O)OC)cc2)cc1.O=[N+]([O-])[O-].O=[N+]([O-])[O-]` (centres unmarked) [Compound 5c, 2,6-di-4-methoxycarbonylpyridinium-9-thiabicyclo[3.3.1]nonane dinitrate], the “concentration up to which no effect (toxicity)” value in series [2] is at least 500 µM. Besides, the krel in series [1] (37° C., relative to 5i = 1) was 0.3; in series [1] (50° C., relative to 5e = 1.00) it was 2.25. The kfrag result in series [1] (setting [4]) is listed as “(0.16 ± 0.01) × 10^−2 h^−1”; in series [1] (setting [3]), “(3.66 ± 0.33) × 10^−2 h^−1”.

With `NC(=O)c1ccc[n+](C2CCC3SC2CCC3[n+]2cccc(C(N)=O)c2)c1.O=[N+]([O-])[O-].O=[N+]([O-])[O-]` (centres unmarked) [Compound 5d, 2,6-di-3-carbamylpyridinium-9-thiabicyclo[3.3.1]nonane dinitrate], the krel in series [1] (50° C., relative to 5e = 1.00) was 1.95. For the same molecule, the kfrag entry in series [1] (setting [3]) is recorded as “(3.18 ± 0.32) ×10^−2 h^−1”.

`NC(=O)c1cc[n+](C2CCC3SC2CCC3[n+]2ccc(C(N)=O)cc2)cc1.O=[N+]([O-])[O-].O=[N+]([O-])[O-]` (centres unmarked) [Compound 5e, 2,6-di-4-carbamylpyridinium-9-thiabicyclo[3.3.1]nonane dinitrate] returned a krel in series [1] (50° C., relative to 5e = 1.00) of 1.00. For the same molecule, the kfrag result in series [1] (setting [3]) was “(1.62 ± 0.10) ×10^−2 h^−1”.

For the molecule `Brc1ccc[n+](C2CCC3SC2CCC3[n+]2cccc(Br)c2)c1.O=[N+]([O-])[O-].O=[N+]([O-])[O-]` (centres unmarked) [Compound 5f, 2,6-di-3-bromopyridinium-9-thiabicyclo[3.3.1]nonane dinitrate], in series [1] (50° C., relative to 5e = 1.00), the krel is 4.05. The kfrag result in series [1] (setting [3]) was “(6.59 ± 0.58) × 10^−2 h^−1”.

As for `FC(F)(F)c1ccc[n+](C2CCC3SC2CCC3[n+]2cccc(C(F)(F)F)c2)c1.O=[N+]([O-])[O-].O=[N+]([O-])[O-]` (centres unmarked) [Compound 5g, 2,6-di-3-trifluoromethylpyridinium-9-thiabicyclo[3.3.1]nonane dinitrate], the krel in series [1] (37° C., relative to 5i = 1) amounted to 11; in series [1] (50° C., relative to 5e = 1.00), 46.2. Further, the values for the kfrag result in series [1] (setting [4]) and in series [1] (setting [3]) were “(5.87 ± 0.71) × 10^−2 h^−1” and “(74.8 ± 5.4) × 10^−2 h^−1”, respectively.

Consider `N#Cc1ccc[n+](C2CCC3SC2CCC3[n+]2cccc(C#N)c2)c1.O=[N+]([O-])[O-].O=[N+]([O-])[O-]` (centres unmarked) [Compound 5h, 2,6-di-3-cyanopyridinium-9-thiabicyclo[3.3.1]nonane dinitrate], for which the krel in series [1] (37° C., relative to 5i = 1) is 2.1; in series [1] (50° C., relative to 5e = 1.00), 6.68. The kfrag entry in series [1] (setting [4]) was “(1.14 ± 0.16) × 10^−2 h^−1”; in series [1] (setting [3]), “(10.8 ± 0.98) × 10^−2 h^−1”.

On to `COc1cc(Br)c[n+](C2CCC3SC2CCC3[n+]2cc(Br)cc(OC)c2)c1.O=[N+]([O-])[O-].O=[N+]([O-])[O-]` (centres unmarked) [Compound 5i, 2,6-di-3-bromo-5-methoxylpyridinium-9-thiabicyclo[3.3.1]nonane dinitrate], for which the “concentration up to which no effect (toxicity)” value in series [2] was at least 500 µM. The krel in series [1] (37° C., relative to 5i = 1) is listed as 1; in series [1] (50° C., relative to 5e = 1.00) it was 4.64. Besides, the kfrag result in series [1] (setting [4]) is recorded as “(0.55 ± 0.04) × 10^−2 h^−1”; in series [1] (setting [3]), “(7.51 ± 0.53) × 10^−2 h^−1”.

In series [1] (37° C., relative to 5i = 1), `NC(=O)c1cc(Br)c[n+](C2CCC3SC2CCC3[n+]2cc(Br)cc(C(N)=O)c2)c1.O=S(=O)([O-])C(F)(F)F.O=S(=O)([O-])C(F)(F)F` (centres unmarked) [Compound 5j, 2,6-di-3-bromo-5-carbamylpyridinium-9-thiabicyclo[3.3.1]nonane ditriflate] yielded a krel of 17. Further, the kfrag result in series [1] (setting [4]) is reported as “(9.34 ± 0.87) × 10^−2 h^−1”.

`COC(=O)c1cc(C(=O)OC)c[n+](C2CCC3SC2CCC3[n+]2cc(C(=O)OC)cc(C(=O)OC)c2)c1.O=S(=O)([O-])C(F)(F)F.O=S(=O)([O-])C(F)(F)F` (centres unmarked) [Compound 5k, 2,6-di-3,5-dimethoxycarbonylpyridinium-9-thiabicyclo[3.3.1]nonane ditriflate] came in with a krel in series [1] (37° C., relative to 5i = 1) of 22. In addition, the kfrag result in series [1] (setting [4]) was “(11.9 ± 1.13) × 10^−2 h^−1”.

In series [1] (37° C., relative to 5i = 1), `COC(=O)c1cc(Br)c[n+](C2CCC3SC2CCC3[n+]2cc(Br)cc(C(=O)OC)c2)c1.O=S(=O)([O-])C(F)(F)F.O=S(=O)([O-])C(F)(F)F` (centres unmarked) [Compound 5l, 2,6-di-3-bromo-5-methoxycarbonylpyridinium-9-thiabicyclo[3.3.1]nonane ditriflate] had a krel of 20. Also, in series [1] (setting [4]), the kfrag result was “(10.9 ± 1.81) × 10^−2 h^−1”.

Turning to `c1cc(CCCc2ccncc2)ccn1` [monomer 2a], in series [2], the “concentrations at which nontoxic” value is listed as “below 500 μM”.

For the molecule `O=C(OCCCOC(=O)c1ccncc1)c1ccncc1` [monomer 2c], the “concentrations at which nontoxic” value in series [2] is recorded as “below 500 μM”.

Consider `Brc1cncc(OCCCOc2cncc(Br)c2)c1` [monomer 2i, 1,3-bis((5-bromopyridin-3-yl)oxy)propane], for which the “concentrations at which nontoxic” value in series [2] is “below 500 μM”.
